Measured values reported in ChEMBL document CHEMBL2029256, “Structure-activity relationships of trimethoxybenzyl piperazine N-type calcium channel inhibitors” (Bioorg Med Chem Lett, 2012).

Tests used:
[1] = Inhibition of rat N-type calcium channel alpha1B/alpha2delta-1/beta1b expressed in HEK293 cells by whole cell patch clamp analysis; type: cell-based
[2] = biological target: Voltage-gated inwardly rectifying potassium channel KCNH2 (Homo sapiens, UniProt Q12809); assay: Inhibition of human Erg expressed in HEK293 cells by whole cell patch clamp analysis
Voltage-gated inwardly rectifying potassium channel KCNH2, sequence (Q12809 whole entry): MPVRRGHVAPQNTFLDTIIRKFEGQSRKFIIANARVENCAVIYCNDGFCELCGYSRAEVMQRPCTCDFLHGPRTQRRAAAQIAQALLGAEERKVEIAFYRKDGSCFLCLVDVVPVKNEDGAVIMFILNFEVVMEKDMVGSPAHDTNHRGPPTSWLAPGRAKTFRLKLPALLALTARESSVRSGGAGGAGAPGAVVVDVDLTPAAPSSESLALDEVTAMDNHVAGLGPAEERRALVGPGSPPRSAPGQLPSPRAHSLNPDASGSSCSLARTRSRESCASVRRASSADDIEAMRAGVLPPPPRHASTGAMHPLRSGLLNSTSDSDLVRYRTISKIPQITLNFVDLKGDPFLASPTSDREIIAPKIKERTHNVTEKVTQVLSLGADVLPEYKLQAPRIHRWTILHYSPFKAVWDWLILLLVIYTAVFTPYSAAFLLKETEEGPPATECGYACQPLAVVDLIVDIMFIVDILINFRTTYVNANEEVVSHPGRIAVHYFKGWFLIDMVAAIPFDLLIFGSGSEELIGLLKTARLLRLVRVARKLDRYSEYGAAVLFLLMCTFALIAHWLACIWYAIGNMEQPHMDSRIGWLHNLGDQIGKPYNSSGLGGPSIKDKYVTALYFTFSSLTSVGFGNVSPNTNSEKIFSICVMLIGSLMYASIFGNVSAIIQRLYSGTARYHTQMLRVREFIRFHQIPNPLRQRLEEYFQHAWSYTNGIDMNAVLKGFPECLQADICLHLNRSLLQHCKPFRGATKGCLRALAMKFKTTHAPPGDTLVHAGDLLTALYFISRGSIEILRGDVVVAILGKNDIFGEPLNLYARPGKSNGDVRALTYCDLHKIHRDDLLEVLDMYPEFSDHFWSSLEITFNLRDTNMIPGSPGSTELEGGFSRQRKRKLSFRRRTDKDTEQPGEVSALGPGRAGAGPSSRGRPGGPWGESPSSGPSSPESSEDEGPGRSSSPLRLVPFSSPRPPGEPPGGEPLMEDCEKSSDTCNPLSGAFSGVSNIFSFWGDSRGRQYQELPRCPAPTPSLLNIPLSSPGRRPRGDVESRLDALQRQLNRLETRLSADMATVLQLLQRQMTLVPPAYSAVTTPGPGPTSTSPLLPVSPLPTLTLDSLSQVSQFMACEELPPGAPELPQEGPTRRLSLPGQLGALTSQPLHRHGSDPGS

Rattus norvegicus [3] = species on record: Rattus norvegicus; assay: animal or person; details: ip, read-out: INH
Rattus norvegicus [4] = assay: Antiallodynic activity in rat chung model of neuropathic pain assessed as paw withdrawal at 30 mg/kg, po measured at 30 mins interval for 3 hrs relative to control
Rattus norvegicus [5] = assay: Antiallodynic activity in rat chung model of neuropathic pain assessed as inhibition of nerve ligation-induced thermal hyperalgesia at 30 mg/kg, po measured at 30 mins interval for 3 hrs relative to control
[6] = Inhibition of rat L-type calcium channel alpha1C/alpha2delta-1/beta1b expressed in HEK293 cells by whole cell patch clamp analysis; type: cell-based
Rattus norvegicus [7] = species on record: Rattus norvegicus; assay: animal or person; details: ip, read-out: INH; remark: listed apart in the source
Rattus norvegicus [8] = species on record: Rattus norvegicus; assay: animal or person; details: ip, read-out: INH; remark: listed apart in the source

Structure (SMILES) | IC50 [1] [nM] | other results
O=C(NC[C@@H]1CCN(C(=O)CCCCC(c2ccc(F)cc2)c2ccc(F)cc2)C1)c1cc(C(F)(F)F)cc(C(F)(F)F)c1 | 90 | –
O=C(NCC1CCN(C(=O)CCCCC(c2ccc(F)cc2)c2ccc(F)cc2)C1)c1cc(F)cc(C(F)(F)F)c1 (stereo not drawn) | 750 | –
COc1cc(C(=O)N2CCC(CNC(=O)CCCCC(c3ccc(F)cc3)c3ccc(F)cc3)C2)cc(OC)c1OC (stereo not drawn) | 840 | IC50 [2]: 750 nM
CC(C)(C)c1cc(C(=O)NC[C@@H]2CCN(C(=O)CCCCC(c3ccc(F)cc3)c3ccc(F)cc3)C2)cc(C(C)(C)C)c1 | 120 | –
COc1c(C(C)(C)C)cc(C(=O)NC[C@H]2CCN(C(=O)CCCCC(c3ccc(F)cc3)c3ccc(F)cc3)C2)cc1C(C)(C)C | 150 | –
CC(C)(C)c1cc(CN2CCN(CCCCCC(c3ccc(F)cc3)c3ccc(F)cc3)CC2)cc(C(C)(C)C)c1O | 40 | IC50 [2]: 100 nM
CC(C)(C)c1cc(CN2CCN(C(=O)CCCCC(c3ccc(F)cc3)c3ccc(F)cc3)CC2)cc(C(C)(C)C)c1O | 180 | –
COc1c(C(C)(C)C)cc(C(=O)N2CCN(C(=O)CCCCC(c3ccc(F)cc3)c3ccc(F)cc3)CC2)cc1C(C)(C)C | 90 | inhibition in vivo at 30 mg/kg (Rattus norvegicus [3]): 79%; Emax at 30 mg/kg (Rattus norvegicus [4]): 1.9%; Emax at 30 mg/kg (Rattus norvegicus [5]): 54.2%
COc1cc(CN2CCN(CCCCCC(c3ccc(F)cc3)c3ccc(F)cc3)CC2)cc(OC)c1OC | – | IC50 [2]: 400 nM
CC(C)(C)c1cc(CNCC2CCN(CCCCCC(c3ccc(F)cc3)c3ccc(F)cc3)C2)cc(C(C)(C)C)c1 (stereo not drawn) | 30 | IC50 [2]: 460 nM
COc1c(C(C)C)cc(C(=O)NCC2CCN(C(=O)CCCCC(c3ccccc3)C3CCN(C)CC3)C2)cc1C(C)C (stereo not drawn) | 1900 | –
CC(C)(C)c1cc(C(=O)N2CCN(C(=O)CCCCC(c3ccc(F)cc3)c3ccc(F)cc3)CC2)cc(C(C)(C)C)c1O | 220 | –
COc1cc(CN2CCC(CNCCCCCC(c3ccc(F)cc3)c3ccc(F)cc3)C2)cc(OC)c1OC (stereo not drawn) | 60 | IC50 [2]: 100 nM
O=C(NCC1CCN(CCCCCC(c2ccc(F)cc2)c2ccc(F)cc2)C1)c1cc(C(F)(F)F)cc(C(F)(F)F)c1 (stereo not drawn) | 150 | –
CC(C)(C)c1cc(CNCC2CCN(CCCCCC(c3ccc(F)cc3)c3ccc(F)cc3)C2)cc(C(C)(C)C)c1O (stereo not drawn) | 50 | –
COc1cc(CN2CCN(CCCCCC(c3ccc(F)cc3)c3ccc(F)cc3)CC2)cc(OC)c1O | 400 | –
CC(C)(C)c1cc(C(=O)N2CCN(C(=O)CCCCC(c3ccc(F)cc3)c3ccc(F)cc3)CC2)cc(C(C)(C)C)c1 | 300 | –
CC(C)(C)c1cc(CN2CCN(CCCCCC(c3ccc(F)cc3)c3ccc(F)cc3)CC2)cc(C(C)(C)C)c1 | 140 | –
COc1c(C(C)(C)C)cc(CN2CCN(CCCCCC(c3ccc(F)cc3)c3ccc(F)cc3)CC2)cc1C(C)(C)C | 90 | –
O=C(NCC1CCN(C(=O)CCCCC(c2ccc(F)cc2)c2ccc(F)cc2)C1)c1cc(C(F)(F)F)cc(C(F)(F)F)c1 (stereo not drawn) | 210 | –

Continued, in another order:

IC50 [1] [nM] | Structure (SMILES) | other results
40 | COc1c(C(C)(C)C)cc(C(=O)NCC2CCN(C(=O)CCCCC(c3ccc(F)cc3)c3ccc(F)cc3)C2)cc1C(C)(C)C (stereo not drawn) | –
100 | COc1c(C)cc(C(=O)NCC2CCN(C(=O)CCCCC(c3ccccc3)C3CCN(C)CC3)C2)cc1C (stereo not drawn) | –
1900 | COc1c(C(C)(C)C)cc(C(=O)N2CCC(CNC(=O)CCCCC(c3ccc(F)cc3)c3ccc(F)cc3)C2)cc1C(C)(C)C (stereo not drawn) | –
100 | O=C(NC[C@H]1CCN(C(=O)CCCCC(c2ccc(F)cc2)c2ccc(F)cc2)C1)c1cc(C(F)(F)F)cc(C(F)(F)F)c1 | –
110 | CC(C)(C)c1cc(C(=O)NCC2CCN(C(=O)CCCCC(c3ccc(F)cc3)c3ccc(F)cc3)C2)cc(C(C)(C)C)c1 (stereo not drawn) | –
1100 | Fc1ccc(C(CCCCCN2CCN(Cc3cc(C(F)(F)F)cc(C(F)(F)F)c3)CC2)c2ccc(F)cc2)cc1 | –
3200 | COc1cc(C(=O)NCC2CCN(C(=O)CCCCC(c3ccccc3)C3CCN(C)CC3)C2)cc(OC)c1OC (stereo not drawn) | –
32 | COc1c(C(C)(C)C)cc(CN2CCC(CNCCCCCC(c3ccc(F)cc3)c3ccc(F)cc3)C2)cc1C(C)(C)C (stereo not drawn) | –
280 | COc1cc(C(=O)NCC2CCN(CCCCCC(c3ccc(F)cc3)c3ccc(F)cc3)C2)cc(OC)c1OC (stereo not drawn) | –
150 | CC(C)(C)c1cc(C(=O)N2CCN(CCCCCC(c3ccc(F)cc3)c3ccc(F)cc3)CC2)cc(C(C)(C)C)c1O | –
10 | COc1c(C(C)(C)C)cc(C(=O)N2CCN(C(=O)CCCCC(c3ccc(F)cc3)c3ccc(F)cc3)[C@@H](C)C2)cc1C(C)(C)C | –
60 | COc1cc(CNCC2CCN(CCCCCC(c3ccc(F)cc3)c3ccc(F)cc3)C2)cc(OC)c1OC (stereo not drawn) | –
4 | CC(C)(C)c1cc(CN2CCC(CNCCCCCC(c3ccc(F)cc3)c3ccc(F)cc3)C2)cc(C(C)(C)C)c1O (stereo not drawn) | –
40 | COc1c(C(C)(C)C)cc(C(=O)N2CCN(C(=O)CCCCC(c3ccc(F)cc3)c3ccc(F)cc3)C[C@@H]2C)cc1C(C)(C)C | IC50 [6]: 144000 nM; inhibition in vivo at 30 mg/kg (Rattus norvegicus [3]): 79%; inhibition in vivo at 30 mg/kg (Rattus norvegicus [7]): 61%; inhibition in vivo at 30 mg/kg (Rattus norvegicus [8]): 50%; Emax at 30 mg/kg (Rattus norvegicus [4]): 31.7%; Emax at 30 mg/kg (Rattus norvegicus [5]): 85.8%
110 | COc1c(C(C)(C)C)cc(C(=O)N2CCN(CCCCCC(c3ccc(F)cc3)c3ccc(F)cc3)CC2)cc1C(C)(C)C | –
880 | CN1CCC(C(CCCCC(=O)N2CCC(CNC(=O)c3cc(Cl)cc(Cl)c3)C2)c2ccccc2)CC1 (stereo not drawn) | –
510 | O=C(CCCCC(c1ccc(F)cc1)c1ccc(F)cc1)N1CCN(C(=O)c2cc(C(F)(F)F)cc(C(F)(F)F)c2)CC1 | –
100 | COc1c(C(C)(C)C)cc(CN2CCN(C(=O)CCCCC(c3ccc(F)cc3)c3ccc(F)cc3)CC2)cc1C(C)(C)C | –
160 | CC(C)(C)c1cc(C(=O)NC[C@H]2CCN(C(=O)CCCCC(c3ccc(F)cc3)c3ccc(F)cc3)C2)cc(C(C)(C)C)c1 | –
600 | COc1cc(C(=O)N2CCN(C(=O)CCCCC(c3ccc(F)cc3)c3ccc(F)cc3)CC2)cc(OC)c1O | –
